We go through one molecule from the NIST ThermoML archive (doi:10.1016/j.jct.2016.05.027).

Numbers after ± are expanded uncertainties.

The conditions of series [1]: Crystal.
The nature of series [2]: Molar enthalpy of transition or fusion. The settings on record: Crystal; DSC.

As for `Cc1cccc([N+](=O)[O-])c1N` [2-methyl-6-nitroaniline], the mass density (usually mass per unit of volume) in series [1] (298.15 K, 101.33 kPa, flotation method) was 1242.4 ± 2.6 kg/m3. For the same molecule, in series [1] (DTA), the Normal melting temperature came out at 93.60 ± 1.1 °C. In series [2], the “Molar enthalpy of transition or fusion” value came to 5.77 ± 0.225 kcal/mol.
